These results are taken from publication PMC7671598, “Differences in the efficiency of 3-deazathiamine and oxythiamine pyrophosphates as inhibitors of pyruvate dehydrogenase complex and growth of HeLa cells in vitro” (Journal of Enzyme Inhibition and Medicinal Chemistry, 2020).

The assay has as its target T1, pyruvate dehydrogenase complex (PDHC).
T1 construct: gene PDHA1; native mitochondrial complex isolated from porcine heart; with PDHB (E1 beta) and the other subunits of the complex
The experiment in a line: spectrophotometric PDHC kinetics at […] nm, Lineweaver-Burk, Ki from the shift of Km for TPP. It counts as biochemical, Sus scrofa. The conditions noted are these: read-out: Kinetic parameters / Ki.

Take `Cc1ncc(C[n+]2csc(CCOP(=O)(O)OP(=O)(O)O)c2C)c(O)n1` [compound 18, oxythiamine pyrophosphate]: the Ki came to 25 ± 15 nM. Under `Cc1ncc(Cc2csc(CCOP(=O)(O)OP(=O)(O)O)c2C)c(N)n1` [compound 15, 3-deazathiamine pyrophosphate] stands 2.6 ± 0.9 nM.
